For two compounds, IC50 results are on record in paper PMC9938908, “Unraveling topoisomerase IA gate dynamics in presence of PPEF and its preclinical evaluation against multidrug-resistant pathogens” (Communications Biology, 2023).

Type in all cases: biochemical
The target of test [1] is T1, S. aureus topoisomerase IA (SaTopoIA) (Staphylococcus aureus, UniProt Q5HGI2).
T1 construct: gene topA; N-terminal His-tag, pET28a(+), 2070 bp, 79 kDa
T1 sequence (Q5HGI2 1-689): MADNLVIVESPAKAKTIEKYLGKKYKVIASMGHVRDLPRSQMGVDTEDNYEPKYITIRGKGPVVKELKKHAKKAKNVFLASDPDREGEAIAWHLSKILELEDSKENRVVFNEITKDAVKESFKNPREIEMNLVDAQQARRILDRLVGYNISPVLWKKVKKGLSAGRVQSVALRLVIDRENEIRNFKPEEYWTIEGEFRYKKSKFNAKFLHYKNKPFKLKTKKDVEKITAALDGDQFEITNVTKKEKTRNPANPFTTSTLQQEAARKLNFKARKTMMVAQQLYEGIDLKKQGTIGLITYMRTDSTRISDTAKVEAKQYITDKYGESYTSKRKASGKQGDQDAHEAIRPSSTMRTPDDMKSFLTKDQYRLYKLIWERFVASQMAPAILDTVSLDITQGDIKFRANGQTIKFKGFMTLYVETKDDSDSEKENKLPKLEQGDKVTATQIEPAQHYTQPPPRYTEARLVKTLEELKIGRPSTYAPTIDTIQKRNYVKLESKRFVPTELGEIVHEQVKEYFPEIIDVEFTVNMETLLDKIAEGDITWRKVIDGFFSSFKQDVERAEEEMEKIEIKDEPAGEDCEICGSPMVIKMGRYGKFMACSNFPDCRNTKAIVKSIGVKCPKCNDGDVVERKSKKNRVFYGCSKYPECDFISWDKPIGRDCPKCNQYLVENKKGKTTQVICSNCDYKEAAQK
As to the kind of experiment: DNA relaxation assay with pHOT-1 plasmid; also ssDNA religation and plasmid cleavage assays.

The target in test [2] is T2, E. coli topoisomerase III (EcTopoIII) (Escherichia coli, UniProt P14294).
T2 construct: gene topB; N-terminal His-tag, pET28a(+), 1962 bp, 73 kDa
T2 sequence (P14294 whole entry): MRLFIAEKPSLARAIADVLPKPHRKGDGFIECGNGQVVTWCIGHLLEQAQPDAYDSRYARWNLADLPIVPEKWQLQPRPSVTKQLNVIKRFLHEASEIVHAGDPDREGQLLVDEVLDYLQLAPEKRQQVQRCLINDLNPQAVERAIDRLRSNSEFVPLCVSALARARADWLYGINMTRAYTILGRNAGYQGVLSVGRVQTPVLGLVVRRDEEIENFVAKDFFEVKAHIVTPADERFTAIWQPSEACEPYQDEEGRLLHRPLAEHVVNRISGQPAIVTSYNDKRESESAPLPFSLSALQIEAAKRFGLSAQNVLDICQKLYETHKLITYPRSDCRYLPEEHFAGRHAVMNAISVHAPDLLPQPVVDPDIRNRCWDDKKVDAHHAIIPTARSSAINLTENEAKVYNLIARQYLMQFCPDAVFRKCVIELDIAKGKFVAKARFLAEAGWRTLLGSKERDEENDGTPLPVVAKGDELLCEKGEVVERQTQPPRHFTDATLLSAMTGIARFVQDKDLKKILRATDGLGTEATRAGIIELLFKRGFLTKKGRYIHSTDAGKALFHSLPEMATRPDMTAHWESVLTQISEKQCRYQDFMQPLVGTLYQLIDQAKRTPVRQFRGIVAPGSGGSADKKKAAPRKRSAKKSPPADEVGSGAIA
As to the kind of experiment: DNA relaxation assay with pHOT-1 plasmid, agarose gel.

The target in test [3] is T3, E. coli topoisomerase IA (EcTopoIA) (Escherichia coli, UniProt P06612).
T3 construct: gene topA; expressed in pET28a(+), purified
T3 sequence (P06612 whole entry): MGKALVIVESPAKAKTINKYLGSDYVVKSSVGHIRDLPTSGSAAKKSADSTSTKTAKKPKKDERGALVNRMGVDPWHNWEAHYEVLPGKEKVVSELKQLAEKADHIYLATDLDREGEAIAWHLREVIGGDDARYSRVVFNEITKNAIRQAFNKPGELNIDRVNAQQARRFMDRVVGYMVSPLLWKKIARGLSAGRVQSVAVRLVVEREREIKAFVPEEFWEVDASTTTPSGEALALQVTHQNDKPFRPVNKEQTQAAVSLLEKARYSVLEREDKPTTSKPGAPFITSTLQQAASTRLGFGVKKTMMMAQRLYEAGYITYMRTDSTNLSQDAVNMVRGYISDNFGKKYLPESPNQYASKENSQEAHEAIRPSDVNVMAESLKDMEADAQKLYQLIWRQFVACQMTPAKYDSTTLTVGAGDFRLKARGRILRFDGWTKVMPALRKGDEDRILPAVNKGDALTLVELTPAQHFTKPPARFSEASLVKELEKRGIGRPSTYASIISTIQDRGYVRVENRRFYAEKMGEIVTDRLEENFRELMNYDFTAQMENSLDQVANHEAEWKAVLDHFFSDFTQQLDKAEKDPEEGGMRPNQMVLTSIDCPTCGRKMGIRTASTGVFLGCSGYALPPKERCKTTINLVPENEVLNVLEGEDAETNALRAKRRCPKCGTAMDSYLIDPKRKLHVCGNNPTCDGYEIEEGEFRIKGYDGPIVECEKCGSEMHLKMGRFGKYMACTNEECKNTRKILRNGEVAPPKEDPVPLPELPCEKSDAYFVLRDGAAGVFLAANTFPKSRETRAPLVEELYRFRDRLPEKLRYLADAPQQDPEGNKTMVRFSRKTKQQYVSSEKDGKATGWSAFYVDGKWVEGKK
Described as above.

Test [4] concerns the target T4, A. baumannii topoisomerase IA (AbTopoIA) (Acinetobacter baumannii, UniProt A0ABX6CBM5).
T4 construct: gene topA; N-terminal His-tag, pET28a(+), 2637 bp, 98 kDa
T4 sequence (A0ABX6CBM5 1-878): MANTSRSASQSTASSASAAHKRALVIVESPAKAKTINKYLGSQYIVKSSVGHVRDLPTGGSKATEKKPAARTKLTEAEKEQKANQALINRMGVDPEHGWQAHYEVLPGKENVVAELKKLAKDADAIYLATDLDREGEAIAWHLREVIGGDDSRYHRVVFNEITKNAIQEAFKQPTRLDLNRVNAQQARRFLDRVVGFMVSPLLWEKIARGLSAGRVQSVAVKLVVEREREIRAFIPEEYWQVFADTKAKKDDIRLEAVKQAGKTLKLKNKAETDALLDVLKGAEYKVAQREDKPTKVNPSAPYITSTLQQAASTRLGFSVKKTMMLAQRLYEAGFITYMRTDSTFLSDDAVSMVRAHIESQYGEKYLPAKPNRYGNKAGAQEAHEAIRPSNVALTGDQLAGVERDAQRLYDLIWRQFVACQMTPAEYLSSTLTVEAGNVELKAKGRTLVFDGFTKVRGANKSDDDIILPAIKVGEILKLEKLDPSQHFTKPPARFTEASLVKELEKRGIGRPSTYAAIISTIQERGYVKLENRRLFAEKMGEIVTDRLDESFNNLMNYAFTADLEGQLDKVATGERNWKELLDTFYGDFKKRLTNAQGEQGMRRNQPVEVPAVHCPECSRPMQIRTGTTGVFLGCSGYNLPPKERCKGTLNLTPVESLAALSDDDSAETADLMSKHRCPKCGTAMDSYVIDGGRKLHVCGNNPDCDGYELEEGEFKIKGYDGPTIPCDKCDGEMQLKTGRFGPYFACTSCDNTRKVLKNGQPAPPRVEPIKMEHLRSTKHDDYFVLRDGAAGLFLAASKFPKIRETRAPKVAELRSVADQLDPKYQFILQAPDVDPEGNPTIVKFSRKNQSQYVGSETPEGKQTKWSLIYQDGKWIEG
The description is as above.

Usually IC50 stands for the point on the concentration scale where inhibition reaches its midpoint. A low value points to inhibition by little substance. For `CCCCN1CCN(c2ccc3[nH]c(-c4ccc5[nH]c(-c6ccc(OC)c(OC)c6)nc5c4)nc3c2)CC1` [BPVF, 5-(4-butylpiperazin-1-yl)-2′-(3,4-dimethoxyphenyl)-1H,1′H-2,5′ bibenzo[d]imidazole], the IC50 in test [1] was found to be 41.4 µM; in test [2], 1.96 µM.

In the case of `CCCN1CCN(c2ccc3nc(-c4ccc5nc(-c6ccc(OCC)cc6)[nH]c5c4)[nH]c3c2)CC1` [PPEF, 2′-(4-ethoxyphenyl)-5-(4-propylpiperazin-1-yl)-1H,1′H-2,5′-bibenzo(d)imidazole], the IC50 in test [3] turned out to be 2.71 µM; in test [1], 15.5 µM; in test [2], 1.58 µM; in test [4], 9.48 µM.
